Source: patent publication US10473666B2, “Dye compounds” (SFC CO., LTD., priority 2015, dated 2019)

How the values were obtained:
HeLa A431 cells = assay: Photostability: fluorescence intensity over time in stained HeLa A431 cells; type: cell-based; conditions: HeLa A431 cells stained with 1.0 μM dye; for change of fluorescence intensity over time: measured at 2-sec intervals for 3500 sec
Method: The fluorescence intensities of three areas A, B, and C of HeLa A431 cells stained with the compound of Formula 110 (1.0 μM) were measured at 2-sec intervals for 3500 sec.
The fluorescence intensities of four areas A, B, C, and D of HeLa A431 cells stained with the compound of Formula 98 (1.0 μM) were measured at 2-sec intervals for 3500 sec.
The fluorescence intensities of two areas A and B of HeLa A431 cells stained with Cy3B (1.0 μM) were measured at intervals of 2 s for 2000 s.

[1] = Absorption spectra, emission spectra, molar extinction coefficients and quantum yields of the dye compounds; type: physicochemical
[2] = as above; type: physicochemical; conditions: Table 1; solvent DMSO
Method: Absorption spectra (λabs), emission spectra (λem), molar extinction coefficients (ε), and quantum yields of the compounds of Formulae 1-7 were measured and the results are shown in Table 1.
Absorption spectra (λabs), emission spectra (λem), molar extinction coefficients, and quantum yields of the compounds of Formulae 44-53 were measured and the results are shown in Table 4.
The products of the two factors (molar extinction coefficient×fluorescence quantum yield) for the inventive dye compounds were much greater than that for the comparative compound.

goat anti-mouse IgG = assay: Absorption and fluorescence emission spectra of goat anti-mouse IgG labeled with the dye
Method: Goat anti-mouse IgG was labeled with Alexa Fluor® 568 (Thermo Fisher Scientific) and the compound of Formula 1 and their absorption spectra and fluorescence emission spectra were recorded.
FIG. 1a is an absorption spectrum of goat anti-mouse IgG labeled with the compound of Formula 1, FIG. 1b is an absorption spectrum of goat anti-mouse IgG labeled with Alexa Fluor® 568, FIG. 1c is a fluorescence emission spectrum of goat anti-mouse IgG labeled with the compound of Formula 1, and FIG. 1d is a fluorescence emission spectrum of goat anti-mouse IgG labeled with Alexa Fluor® 568.
Goat anti-mouse IgG was labeled with Alexa Fluor® 594 (Thermo Fisher Scientific) and the compound of Formula 3 and their absorption spectra and fluorescence emission spectra were recorded.
FIG. 2a is an absorption spectrum of goat anti-mouse IgG labeled with the compound of Formula 3, FIG. 2b is an absorption spectrum of goat anti-mouse IgG labeled with Alexa Fluor® 594, FIG. 2c is a fluorescence emission spectrum of goat anti-mouse IgG labeled with the compound of Formula 3, and FIG. 2d is a fluorescence emission spectrum of goat anti-mouse IgG labeled with Alexa Fluor® 594.

[3] = tested on: IgG from mouse serum (primary); assay: FLISA plate fluorescence (bioactivity) of dye-conjugated secondary antibody on coated primary IgG; type: binding; conditions: for D/P ratio at which the dye-secondary antibody was conjugated to the primary antibody with the highest efficiency: dye-conjugated goat anti-mouse IgG on IgG from mouse serum; for Fluorescence: dye-conjugated goat anti-mouse IgG
Method: 1. IgG from mouse serum (primary) was dissolved to a concentration of 10 μg/ml in coating buffer.
2. 100 μl of the solution was divided into each well of a FLISA H/B black corning plate.
3. After top sealing, the plate was incubated in the dark at room temperature for 2 h.
4. Each well was washed three times with 300 μl of washing buffer.
5. 300 μl of blocking buffer was placed into each well. After top sealing, the plate was incubated in the dark at room temperature for 1 h.
6. After removal of the blocking buffer, the wells were washed three times with washing buffer.
7. 100 μl of a dye-conjugated secondary antibody (10 μg/ml) was placed into each well. After top sealing, the plate was incubated in the dark at room temperature for 1 h.
8. After removal of the solution, each well was washed three times with 200 μl of washing buffer.
9. 100 μl of PBS was placed into each sample-containing well.
10. Fluorescence was measured with a microplate reader.
The procedure of Experimental Example 4 was repeated except that the compound of Formula 3 was used.
The procedure of Experimental Example 4 was repeated except that the compound of Formula 50 was used.

[4] = Characterization as pH probes: fluorescence intensity versus pH; type: physicochemical; conditions: for fluorescence intensity under acidic conditions: pH 1-6; for fluorescence intensity under basic conditions: pH 9-12
Source text: In addition, the absorption and fluorescence wavelengths of the compound of Formula 97 well match currently available laser lines (488 nm, 532 nm, and 550 nm).
That is, the compound of Formula 111 as a pH probe emitted strong fluorescence at pH 2-6 and the compound of Formula 97 as a pH probe emitted strong fluorescence at pH 8-12.

[5] = tested on: mitochondria, Raw 264.7 cells; assay: Selectivity for mitochondria: co-localization with MitoTracker Green FM in Raw 264.7 cells; type: cell-based; conditions: dye 1 μM
Method: The specific selectivity of the compound of Formula 110 for mitochondria was investigated. To this end, Raw 264.7 cells were co-localized with the compound of Formula 110 and a commercially available mitochondrial marker (MTG, 1 μM MitoTracker Green FM for mitochondria).
OPM images were acquired at 560-600 nm (Formula 110, λex=552 nm) and 470-520 nm (MTG, λex=488 nm) and are shown in FIGS. 4a and 4b, respectively. FIG. 4c is a merged image of FIGS. 4a and 4b. The Pearson's co-localization coefficient (A) was calculated using the LAS AF software. [MTG]=1μM for 30 min incubation,λex=488 nm [Formula 110]=1μM for 30 min incubation,λex=552 nm

[6] = tested on: mitochondria, HeLa A431 cells; assay: Selectivity for mitochondria: co-localization with MitoTracker Green FM in HeLa A431 cells; type: cell-based; conditions: dye 0.5 μM
Method: The specific selectivity of the compound of Formula 97 for mitochondria was investigated. To this end, HeLa A431 cells were co-localized with the compound of Formula 97 and a commercially available mitochondrial marker (MTG, 0.2 μM MitoTracker Green FM for mitochondria).
OPM images were acquired at 571-650 nm (Formula 97, λex=552 nm) and 498-540 nm (MTG, λex=488 nm) and are shown in FIGS. 6a and 6b, respectively. FIG. 6c is a merged image of FIGS. 6a and 6b. The Pearson's co-localization coefficient (A) was calculated using the LAS AF software. [MTG]=0.2μM for 30 min incubation,λex=488 nm [Formula 97]=0.5μM for 30 min incubation,λex=552 nm

[7] = Photophysical properties incl. two-photon cross-sections (femtosecond fluorescence measurement technique); type: physicochemical
Method: All measurements were performed in DMSO, ethanol, and PBS buffer. Two-photon cross-sections (δ) were measured using a femtosecond (fs) fluorescence measurement technique.

[8] = dye-conjugated secondary antibody, plate fluorescence

Row | Compound | photostability (HeLa A431 cells) | Quantum yield ([1]; Table 6, solvent DMSO) | ε (molar extinction coefficient) ([1]; Table 6, solvent DMSO) | λabs ([1]; Table 6, solvent DMSO) [nm] | λem ([1]; Table 6, solvent DMSO) [nm] | Quantum yield ([1]; Table 6, solvent EtOH) | ε (molar extinction coefficient) ([1]; Table 6, solvent EtOH) | λabs ([1]; Table 6, solvent EtOH) [nm] | λem ([1]; Table 6, solvent EtOH) [nm] | Quantum yield ([1]; Table 6, solvent PBS) | ε (molar extinction coefficient) ([1]; Table 6, solvent PBS) | λabs ([1]; Table 6, solvent PBS) [nm] | λem ([1]; Table 6, solvent PBS) [nm] | Q.Y. (quantum yield) [2] | λabs [2] [nm] | fluorescence emission intensity compared with the Alexa Fluor dye (goat anti-mouse IgG) | ε (molar extinction coefficient) ([1]; Table 1, solvent DMSO) | change of fluorescence intensity over time (HeLa A431 cells) | D/P ratio at which the dye-secondary antibody was conjugated to the primary antibody with the highest efficiency [3] | bioactivity compared with the Alexa Fluor dye [3, 8] | further results
1 | CC1(CCCCCC(=O)O)C2=[N+](CCC3Oc4cc(N(CCCS(=O)(=O)O)CCCS(=O)(=O)O)ccc4C=C23)c2ccc(S(=O)(=O)[O-])cc21 (stereo not shown) [Formula 1] |  |  |  |  |  |  |  |  |  |  |  |  |  | 0.91 | 584 | higher than that of Alexa Fluor® 568 | 66,000 M^−1cm^−1 |  | ~4.8 | better bioactivity than Alexa Fluor® 568 | aggregation compared with the Alexa Fluor dye (goat anti-mouse IgG): less aggregated than Alexa Fluor® 568; Fluorescence ([3]; D/P ratio 2.202771): 104.026; Fluorescence ([3]; D/P ratio 4.888795): 127.5422; Fluorescence ([3]; D/P ratio 8.141409): 95.4; Fluorescence ([3]; D/P ratio 11.30465): 91.8519; Fluorescence ([3]; D/P ratio 12.45994): 75.1; brightness values compared with the Alexa Fluor dye [3, 8]: much higher than those of Alexa Fluor® 568; λem ([1]; Table 1, solvent DMSO): 617 nm
2 | CC1(C)C2=[N+](CCC3Oc4cc(N5CCN(CCCCCC(=O)O)CC5)ccc4C=C23)c2ccccc21 (stereo not shown) [Formula 111] |  |  |  |  |  |  |  |  |  |  |  |  |  |  |  |  |  |  |  |  | pH at which the pH probe emitted strong fluorescence [4]: 2-6 pH; fluorescence intensity under acidic conditions [4]: increased; fluorescence intensity under basic conditions [4]: decreased; Quantum yield ([1]; Table 6, solvent PBS (pH 7.4)): 0.53; ε (molar extinction coefficient) ([1]; Table 6, solvent PBS (pH 7.4)): 55,000 M^−1cm^−1; λabs ([1]; Table 6, solvent PBS (pH 7.4)): 530 nm; λem ([1]; Table 6, solvent PBS (pH 7.4)): 585 nm
3 | CC1(CCCCCC(=O)O)C2=[N+](CCC3Oc4cc5c(cc4C=C23)C(CS(=O)(=O)O)CC(C)(C)N5CCCS(=O)(=O)O)c2ccc(S(=O)(=O)[O-])cc21 (stereo not shown) [Formula 3] |  |  |  |  |  |  |  |  |  |  |  |  |  | 0.87 | 595 | higher than that of Alexa Fluor® 594 | 64,000 M^−1cm^−1 |  | ~3.4 | better bioactivity than Alexa Fluor® 594 | Fluorescence ([3]; D/P ratio 2.54): 64.89; Fluorescence ([3]; D/P ratio 3.47): 83.79; Fluorescence ([3]; D/P ratio 4.86): 78.61; Fluorescence ([3]; D/P ratio 5.18): 80.28; Fluorescence ([3]; D/P ratio 5.95): 68.06; brightness values compared with the Alexa Fluor dye ([3]; when the D/P ratio was ≥5): much higher than those of Alexa Fluor® 594; λem ([1]; Table 1, solvent DMSO): 624 nm
4 | CC1(C)C2=C3C=C4C=CC(=O)C=C4OC3CCN2c2ccccc21 (stereo not shown) [Formula 97] |  | 0.94 | 35,000 M^−1cm^−1 | 551 | 568 | 0.90 | 47,000 M^−1cm^−1 | 555 | 567 | 0.63 | 14,000 M^−1cm^−1 | 541 | 565 |  |  |  |  |  |  |  | staining selectivity for mitochondria [6]: mitochondria were predominantly stained; degree of overlapping (A), Pearson's co-localization coefficient with Mitotracker Green FM ([6]; MTG 0.2 μM, 30 min incubation, LAS AF software): 0.74; pH at which the pH probe emitted strong fluorescence [4]: 8-12 pH; fluorescence intensity under acidic conditions [4]: decreased; fluorescence intensity under basic conditions [4]: increased; d: Peak two-photon cross-section ([7]; Buffer (PBS buffer)): 35 10^−50 cm^4s per photon (GM); dΦ: Two-photon action cross-section ([7]; Buffer (PBS buffer)): 22 GM; Φ: Fluorescence quantum yield ([7]; Buffer (PBS buffer)): 0.63; λ^(2)max^abs: Maximum wavelength in two-photon absorption spectrum ([7]; Buffer (PBS buffer)): 920 nm; λmax^fl: Maximum wavelength in single-photon emission spectrum ([7]; Buffer (PBS buffer)): 565 nm; eΦ: Molar extinction coefficient × fluorescence quantum yield ([7]; Buffer (PBS buffer), in M-1cm-1): 8820; Φ: Fluorescence quantum yield ([7]; DMSO): 0.94; λmax^fl: Maximum wavelength in single-photon emission spectrum ([7]; DMSO): 567 nm; dΦ: Two-photon action cross-section ([7]; EtOH): 14 GM; λ^(2)max^abs: Maximum wavelength in two-photon absorption spectrum ([7]; EtOH): 720 nm

More lines, main results first:

Row | photostability (HeLa A431 cells) | Quantum yield ([1]; Table 6, solvent DMSO) | ε (molar extinction coefficient) ([1]; Table 6, solvent DMSO) | λabs ([1]; Table 6, solvent DMSO) [nm] | λem ([1]; Table 6, solvent DMSO) [nm] | Quantum yield ([1]; Table 6, solvent EtOH) | ε (molar extinction coefficient) ([1]; Table 6, solvent EtOH) | λabs ([1]; Table 6, solvent EtOH) [nm] | λem ([1]; Table 6, solvent EtOH) [nm] | Quantum yield ([1]; Table 6, solvent PBS) | ε (molar extinction coefficient) ([1]; Table 6, solvent PBS) | λabs ([1]; Table 6, solvent PBS) [nm] | λem ([1]; Table 6, solvent PBS) [nm] | Q.Y. (quantum yield) [2] | λabs [2] [nm] | fluorescence emission intensity compared with the Alexa Fluor dye (goat anti-mouse IgG) | ε (molar extinction coefficient) ([1]; Table 1, solvent DMSO) | Compound | change of fluorescence intensity over time (HeLa A431 cells) | D/P ratio at which the dye-secondary antibody was conjugated to the primary antibody with the highest efficiency [3] | bioactivity compared with the Alexa Fluor dye [3, 8] | further results
5 | good photostability | 0.77 | 57,000 M^−1cm^−1 | 570 | 601 | 0.78 | 64,000 M^−1cm^−1 | 570 | 596 | 0.51 | 57,000 M^−1cm^−1 | 565 | 595 |  |  |  |  | CCN(CC)c1ccc2c(c1)OC1CC[N+]3=C(C1=C2)C(C)(C)c1ccccc13 (stereo not shown) [Formula 98] | no substantial decreases in fluorescence intensity for 1 h |  |  | 
6 | good photostability | 0.86 | 37,000 M^−1cm^−1 | 561 | 597 | 0.80 | 50,000 M^−1cm^−1 | 558 | 584 | 0.78 | 37,000 M^−1cm^−1 | 550 | 579 |  |  |  |  | CNc1ccc2c(c1)OC1CC[N+]3=C(C1=C2)C(C)(C)c1ccccc13 (stereo not shown) [Formula 110] | no substantial decreases in fluorescence intensity for 1 h |  |  | staining selectivity for mitochondria [5]: mitochondria were predominantly stained; degree of overlapping (A), Pearson's co-localization coefficient with Mitotracker Green FM ([5]; MTG 1 μM, 30 min incubation, LAS AF software): 0.73
